Results reported in EP4667466A1, “PROTAC DEGRADERS OF MLLT1 AND/OR MLLT3” (priority 2024, dated 2025).

Target: T1, MLLT1 (Homo sapiens, UniProt Q03111)
T1 construct: endogenous in cells; host or cells: MV4-11 (ATCC CRL-9591)
T1 sequence (Q03111 1-559): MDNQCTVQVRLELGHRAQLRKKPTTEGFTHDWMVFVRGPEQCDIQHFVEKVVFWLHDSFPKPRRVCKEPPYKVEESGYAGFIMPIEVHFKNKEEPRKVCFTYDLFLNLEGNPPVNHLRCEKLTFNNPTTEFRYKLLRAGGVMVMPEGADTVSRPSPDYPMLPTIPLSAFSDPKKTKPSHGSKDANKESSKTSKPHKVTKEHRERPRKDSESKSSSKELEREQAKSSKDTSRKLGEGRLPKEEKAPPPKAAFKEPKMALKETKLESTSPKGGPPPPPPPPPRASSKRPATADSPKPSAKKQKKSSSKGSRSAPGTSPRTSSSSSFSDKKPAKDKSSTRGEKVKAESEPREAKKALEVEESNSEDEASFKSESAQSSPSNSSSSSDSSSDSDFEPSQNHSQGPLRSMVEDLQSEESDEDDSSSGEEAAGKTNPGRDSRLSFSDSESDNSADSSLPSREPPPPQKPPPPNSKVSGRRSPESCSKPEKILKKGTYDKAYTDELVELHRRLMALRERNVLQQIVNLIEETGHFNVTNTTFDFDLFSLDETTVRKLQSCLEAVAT
Assay: MLLT1 degradation assay (JESS automated chemiluminescent detection) in MV4-11 cells
Format: cell-based
Conditions: 24h, with respect to DMSO control
Method in brief: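 MV4-11 cells were treated with 1000, 100 or 10 nM compound (0.1% DMSO) for 24 h at 37 °C. Lysates (4 µg protein) were probed for MLLT1 and GAPDH by JESS capillary chemiluminescence. Degradation was calculated from band peak areas versus DMSO control and binned into categories A–D.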

`Cc1nn(CCCCCCCC#Cc2cccc3c2CN(C2CCC(=O)NC2=O)C3=O)c2cc(C(=O)Nc3cc4[nH]c([C@H]5CC6(CC6)CN5C)cc4cn3)ccc12` (stereo in doubt) [Example 56, 1-(9-(2-(2,6-dioxopiperidin-3-yl)-1-oxoisoindolin-4-yl)non-8-yn-1-yl)-3-methyl-N-(2-((rel-R)-5-methyl-5-azaspiro[2.4]heptan-6-yl)-1H-pyrrolo[3,2-c]pyridin-6-yl)-1H-indazole-6-carboxamide] was tested, and the inhibition at 0.01 µM was ≥ 75%, the inhibition at 0.1 µM was ≥ 75% and the inhibition at 1 µM was ≥ 75%.

For `Cc1nn(CCCCCCCC#Cc2ccc(F)c3c2CN(C2CCC(=O)NC2=O)C3=O)c2cc(C(=O)Nc3cc4[nH]c([C@H]5CCCN5C)c(Cl)c4cn3)ccc12` (stereo partly drawn) [Example 67, N-(3-chloro-2-((R)-1-methylpyrrolidin-2-yl)-1H-pyrrolo[3,2-c]pyridin-6-yl)-1-(9-(2-(2,6-dioxopiperidin-3-yl)-7-fluoro-1-oxoisoindolin-4-yl)non-8-yn-1-yl)-3-methyl-1H indazole-6-carboxamide], the inhibition at 0.01 µM was ≥ 75%, the inhibition at 0.1 µM was ≥ 75% and the inhibition at 1 µM was ≥ 75%.

For `Cc1nn(CCCCCCCC#Cc2cccc(C3CCC(=O)NC3=O)c2F)c2cc(C(=O)Nc3cc4[nH]c([C@H]5CCCN5C)cc4cn3)ccc12` (stereo partly drawn) [Example 61, 1-(9-(3-(2,6-dioxopiperidin-3-yl)-2-fluorophenyl)non-8-yn-1-yl)-3-methyl-N-(2-((R)-1-methylpyrrolidin-2-yl)-1H-pyrrolo [3,2-c]pyridin-6-yl)-1H-indazole-6-carboxamide], the inhibition at 0.01 µM was 25 to 50%, the inhibition at 0.1 µM was ≥ 75% and the inhibition at 1 µM was ≥ 75%.

With `Cc1nn(CCCCCOCC#Cc2cccc3c2CN(C2CCC(=O)NC2=O)C3=O)c2cc(C(=O)Nc3cc4[nH]c([C@H]5CCCN5C)cc4cn3)ccc12` (stereo partly drawn) [Example 49, 1-(5-((3-(2-(2,6-dioxopiperidin-3-yl)-1-oxoisoindolin-4-yl)prop-2-yn-1-yl)oxy)pentyl)-3-methyl-N-(2-((R)-1-methylpyrrolidin-2-yl)-1H-pyrrolo[3,2-c]pyridin-6-yl)-1H-indazole-6-carboxamide] the inhibition at 0.01 µM was ≥ 75%, the inhibition at 0.1 µM was ≥ 75% and the inhibition at 1 µM was ≥ 75%.

For `CN1CCC[C@@H]1c1cc2cnc(NC(=O)c3ccc4cnn(CCCCCCCC#Cc5cccc6c5CN(C5CCC(=O)NC5=O)C6=O)c4c3)cc2[nH]1` (stereo partly drawn) [Example 55, 1-(9-(2-(2,6-dioxopiperidin-3-yl)-1-oxoisoindolin-4-yl)non-8-yn-1-yl)-N-(2-((R)-1-methylpyrrolidin-2-yl)-1H-pyrrol[3,2-c]pyridin-6-yl)-1H-indazole-6-carboxamide], the inhibition at 0.01 µM was 50 to 75%, the inhibition at 0.1 µM was ≥ 75% and the inhibition at 1 µM was ≥ 75%.

`Cc1nn(CCCCCCCC#Cc2cccc3c2CN(C2CCC(=O)NC2=O)C3=O)c2cc(C(=O)Nc3cc4[nH]c([C@H]5CCCN5C)cc4cn3)c(F)cc12` (stereo partly drawn) [Example 58, 1-(9-(2-(2,6-dioxopiperidin-3-yl)-1-oxoisoindolin-4-yl)non-8-yn-1-yl)-5-fluoro-3-methyl-N-(2-((R)-1-methylpyrrolidin-2-yl)-1H-pyrrolo[3,2-c]pyridin-6-yl)-1H-indazole-6-carboxamide] was tested, and the inhibition at 0.01 µM was ≥ 75%, the inhibition at 0.1 µM was ≥ 75% and the inhibition at 1 µM was ≥ 75%.

`Cc1c([C@H]2CCCN2C)[nH]c2cc(NC(=O)c3ccc4c(C)nn(CCCCCCCC#Cc5cccc6c5CN(C5CCC(=O)NC5=O)C6=O)c4c3)ncc12` (stereo partly drawn) [Example 57, 1-(9-(2-(2,6-dioxopiperidin-3-yl)-1-oxoisoindolin-4-yl)non-8-yn-1-yl)-3-methyl-N-(3-methyl-2-((R)-1-methylpyrrolidin-2-yl)-1H-pyrrolo[3,2-c]pyridin-6-yl)-1H-indazole-6-carboxamide] was tested, and the inhibition at 0.01 µM was ≥ 75%, the inhibition at 0.1 µM was ≥ 75% and the inhibition at 1 µM was ≥ 75%.

`Cc1nn(C2CCN(CC3CCN(c4ccc5c(c4)C(=O)N(C4CCC(=O)NC4=O)C5=O)CC3)CC2)c2cc(C(=O)Nc3cc4[nH]c([C@H]5CCCN5C)cc4cn3)ccc12` (stereo partly drawn) [Example 70, 1-(1-((1-(2-(2,6-dioxopiperidin-3-yl)-1,3-dioxoisoindolin-5-yl)piperidin-4-yl)methyl)piperidin-4-yl)-3-methyl-N-(2-((R)-1-methylpyrrolidin-2-yl)-1H-pyrrolo[3,2-c]pyridin-6-yl)-1H-indazole-6-carboxamide] was tested, and the inhibition at 0.01 µM was ≥ 75%, the inhibition at 0.1 µM was ≥ 75% and the inhibition at 1 µM was ≥ 75%.

In the case of `Cc1nn(CC#Cc2cccc3c2CN(C2CCC(=O)NC2=O)C3=O)c2cc(C(=O)Nc3cc4[nH]c([C@H]5CCCN5C)cc4cn3)ccc12` (stereo partly drawn) [Example 72, 1-(3-(2-(2,6-dioxopiperidin-3-yl)-1-oxoisoindolin-4-yl)prop-2-yn-1-yl)-3-methyl-N (2-((R)-1-methylpyrrolidin-2-yl)-1H pyrrolo[3,2-c]pyridin-6-yl)-1H-indazole-6-carboxamide], the inhibition at 0.01 µM is reported as ≥ 75%, the inhibition at 0.1 µM is reported as ≥ 75% and the inhibition at 1 µM is reported as 50 to 75%.

For `Cc1nn(CCOCCCCC#Cc2cccc3c2CN(C2CCC(=O)NC2=O)C3=O)c2cc(C(=O)Nc3cc4[nH]c([C@H]5CCCN5C)cc4cn3)ccc12` (stereo partly drawn) [Example 50], the inhibition at 0.01 µM was ≥ 75%, the inhibition at 0.1 µM was ≥ 75% and the inhibition at 1 µM was ≥ 75%.

`Cc1nn(C2CCN(CC3CCN(c4cccc5c4C(=O)N(C4CCC(=O)NC4=O)C5=O)CC3)CC2)c2cc(C(=O)Nc3cc4[nH]c([C@H]5CCCN5C)cc4cn3)ccc12` (stereo partly drawn) [Example 71, 1-(1-((1-(2-(2,6-dioxopiperidin-3-yl)-1,3-dioxoisoindolin-4-yl)piperidin-4-yl)methyl)piperidin-4-yl)-3-methyl-N-(2-((R)-1-methylpyrrolidin-2-yl)-1H-pyrrolo[3,2-c]pyridin-6-yl)-1H-indazole-6-carboxamide] was tested, and the inhibition at 0.01 µM was 50 to 75%, the inhibition at 0.1 µM was ≥ 75% and the inhibition at 1 µM was ≥ 75%.

For `CCN1CCC[C@@H]1c1cc2cnc(NC(=O)c3ccc4c(C)nn(CCCCCCCC#Cc5cccc6c5CN(C5CCC(=O)NC5=O)C6=O)c4c3)cc2[nH]1` (stereo partly drawn) [Example 48, 1-(9-(2-(2,6-dioxopiperidin-3-yl)-1-oxoisoindolin-4-yl)non-8-yn-1-yl)-N-(2-((R)-1-ethylpyrrolidin-2-yl)-1H-pyrrolo[3,2-c]pyridin-6-yl)-3-methyl-1H-indazole-6-carboxamide], the inhibition at 0.01 µM was 25 to 50%, the inhibition at 0.1 µM was 50 to 75% and the inhibition at 1 µM was ≥ 75%.

For `Cc1nn(CCCCCCCC#Cc2cccc(C3CCC(=O)NC3=O)n2)c2cc(C(=O)Nc3cc4[nH]c([C@H]5CCCN5C)cc4cn3)ccc12` (stereo partly drawn) [Example 62, 1-(9-(6-(2,6-dioxopiperidin-3-yl)pyridin-2-yl)non-8-yn-1-yl)-3-methyl-N-(2-((R)-1-methylpyrrolidin-2-yl)-1H-pyrrolo [3,2-c]pyridin-6-yl)-1H indazole-6-carboxamide], the inhibition at 0.01 µM was 50 to 75%, the inhibition at 0.1 µM was 50 to 75% and the inhibition at 1 µM was ≥ 75%.

With `Cc1nn(CCCCCC#Cc2cccc3c2n(C)c(=O)n3C2CCC(=O)NC2=O)c2cc(C(=O)Nc3cc4[nH]c([C@H]5CCCN5C)cc4cn3)ccc12` (stereo partly drawn) [Example 11, 1-{7-[1-(2,6-dioxopiperidin-3-yl)-3-methyl-2-oxo-1,3-benzodiazol-4-yl]hept-6-yn-1-yl}-3-methyl-N-{2-[(2R)-1-methylpyrrolidin-2-yl]-1H-pyrrolo[3,2-c]pyridin-6-yl}indazole-6-carboxamide] the inhibition at 0.01 µM was 50 to 75%, the inhibition at 0.1 µM was 50 to 75% and the inhibition at 1 µM was 50 to 75%.

`Cc1c(OCCCCCCCCn2nc(C)c3ccc(C(=O)Nc4cc5[nH]c([C@H]6CCCN6C)cc5cn4)cc32)cccc1N1CCC(=O)NC1=O` [Example 9, 1-{8-[3-(2,4-dioxo-1,3-diazinan-1-yl)-2-methylphenoxy]octyl}-3-methyl-N-{2-[(2R)-1-methylpyrrolidin-2-yl]-1H-pyrrolo[3,2-c]pyridin-6-yl}indazole-6-carboxamide] was tested, and the inhibition at 0.01 µM was < 25%, the inhibition at 0.1 µM was 25 to 50% and the inhibition at 1 µM was ≥ 75%.

`Cc1nn(CCCCCC#Cc2cccc(C(=O)NC3CCC(=O)NC3=O)c2F)c2cc(C(=O)Nc3cc4[nH]c([C@H]5CCCN5C)cc4cn3)ccc12` (stereo partly drawn) [Example 34, 1-(7-(3-((2,6-dioxopiperidin-3-yl)carbamoyl)-2-fluorophenyl)hept-6-yn-1-yl)-3-methyl-N-(2-((R)-1-methylpyrrolidin-2-yl)-1H-pyrrolo[3,2-c]pyridin-6-yl)-1H-indazole-6-carboxamide] was tested, and the inhibition at 0.01 µM was < 25%, the inhibition at 0.1 µM was 50 to 75% and the inhibition at 1 µM was ≥ 75%.

In the case of `Cc1nn(CCCCCCCCNc2cccc3c2C(=O)N(C2CCC(=O)NC2=O)C3=O)c2cc(C(=O)Nc3cc4[nH]c([C@H]5CCCN5C)cc4cn3)ccc12` (stereo partly drawn) [Example 3, 1-(8-{[2-(2,6-dioxopiperidin-3-yl)-1,3-dioxoisoindol-4-yl]amino}octyl)-3-methyl-N-{2-[(2R)-1-methylpyrrolidin-2-yl]-1H-pyrrolo[3,2-c]pyridin-6-yl}indazole-6-carboxamide], the inhibition at 0.01 µM is reported as 50 to 75%, the inhibition at 0.1 µM is reported as ≥ 75% and the inhibition at 1 µM is reported as ≥ 75%.
